Laboratory results taken from article PMC6063448, “Antimicrobial activity of linear lipopeptides derived from BP100 towards plant pathogens” (PLoS ONE, 2018).

Legend:
Format in all cases: cell-based
[1] = test system: Erwinia amylovora PMV6076; assay: MIC, growth inhibition in microtiter plates (TSB); details: Ea, 25°C, 48 h, OD 600 nm, lowest concentration with no growth, given as interval of tested concentrations, three replicates, experiment repeated twice
Excerpt: (§1) The following plant pathogenic bacterial strains were used: Erwinia amylovora PMV6076 (Institut National de la Recherche Agronomique, Angers, France), Pseudomonas syringae pv. syringae EPS94 (Institut de Tecnologia Agroalimentària, Universitat de Girona, Spain), Xanthomonas axonopodis pv. vesicatoria 2133–2, Pseudomonas syringae pv. actinidiae Psa3700.1.1, Xanthomonas fragariae Xf349-9A (Instituto Valenciano de Investigaciones Agrarias, Valencia, Spain), and Xanthomonas arboricola pv. pruni CFBP5563 (Collection Française de Bactéries associées aux Plantes, Angers, France). All bacteria except for X. fragariae were stored in Luria Bertani (LB) broth supplemented with glycerol (20%) and maintained at -80°C. For X. fragariae, Medium B [46] was used instead of LB. E. amylovora, X. arboricola pv. pruni, P. syringae pv. syringae and P. syringae pv. actinidiae were scrapped from the agar media after growing for 24 h at 25°C, and X. axonopodis pv. vesicatoria and X. fragariae after growing for 48 h at 25°C. The cell material was suspended in sterile water to obtain a suspension of 10^8 CFU mL^-1.
(§2) Lyophilized peptides were solubilized in sterile Milli-Q water to a final concentration of 1 mM and filter sterilized through a 0.22-μm pore filter. […] For antibacterial activity 20 μL of each dilution were mixed in a microtiter plate well with 20 μL of the corresponding suspension of the bacterial indicator, 160 μL of Trypticase Soy Broth (TSB) (BioMèrieux, France) to a total volume of 200 μL. For antifungal activity 20 μL of each stock solution were mixed in a microtiter plate well with 80 μL of the corresponding suspension of the fungal pathogen and 100 μL of double concentrated Potato Dextrose Broth (PDB) to a total volume of 200 μL containing 0.003% w/v of chloramphenicol to prevent bacterial contamination.
(§3) Three replicates for each combination of strain, compound and concentration were used. Microbial growth was determined by optical density measurement at 600 nm (Bioscreen C, Labsystem, Helsinki, Finland). For antibacterial activity microplates were incubated at 25°C with 20 s shaking before hourly absorbance measurement for 48 h. For antifungal activity microplates were incubated at 22°C with 1 min shaking before absorbance measurement that were done every two hours during seven days. The experiment was repeated twice. The MIC was taken as the lowest compound concentration with no growth at the end of the experiment.

[2] = test system: Xanthomonas fragariae Xf349-9A; assay: MIC, growth inhibition in microtiter plates (TSB); details: Xf, 25°C, 48 h, OD 600 nm, lowest concentration with no growth, given as interval of tested concentrations, three replicates, experiment repeated twice
Excerpt: as §1, §2, §3

[3] = test system: Pseudomonas syringae pv. syringae EPS94; assay: MIC, growth inhibition in microtiter plates (TSB); details: Pss, 25°C, 48 h, OD 600 nm, lowest concentration with no growth, given as interval of tested concentrations, three replicates, experiment repeated twice
Excerpt: as §1, §2, §3

[4] = test system: Xanthomonas axonopodis pv. vesicatoria 2133–2; assay: MIC, growth inhibition in microtiter plates (TSB); details: Xav, 25°C, 48 h, OD 600 nm, lowest concentration with no growth, given as interval of tested concentrations, three replicates, experiment repeated twice
Excerpt: as §1, §2, §3

[5] = test system: Pseudomonas syringae pv. actinidiae Psa3700.1.1; assay: MIC, growth inhibition in microtiter plates (TSB); details: Psa, 25°C, 48 h, OD 600 nm, lowest concentration with no growth, given as interval of tested concentrations, three replicates, experiment repeated twice
Excerpt: as §1, §2, §3

[6] = test system: Xanthomonas arboricola pv. pruni CFBP5563; assay: MIC, growth inhibition in microtiter plates (TSB); details: Xap, 25°C, 48 h, OD 600 nm, lowest concentration with no growth, given as interval of tested concentrations, three replicates, experiment repeated twice
Excerpt: as §1, §2, §3

[7] = test system: Fusarium oxysporum f. sp. lycopersici FOL 3 race 2; assay: MIC, antifungal growth inhibition in microtiter plates (PDB); details: Fo, 22°C, seven days, OD 600 nm, lowest concentration with no growth, given as interval of tested concentrations, three replicates, experiment repeated twice
Protocol: (§4) The following plant pathogenic fungal strains were used: Penicillium expansum EPS26 (Institut de Tecnologia Agroalimentària, Universitat de Girona, Spain) and Fusarium oxysporum f. sp. lycopersici FOL 3 race 2 (ATCC 201829, American Type Culture Collection,Virginia, EEUU). Strains were cultured on potato dextrose agar (PDA) plates (Difco). Conidia from P. expansum and microconidia from F. oxysporum were obtained from 5–7 day-old agar Potato Dextrose (PDA) cultures after growth at 25°C. Inoculum was prepared by scraping spore material from culture surfaces with a cotton swab and resuspending it in distilled water containing 0.5‰ of tween 80. The suspensions were filtered through Miracloth (Merk, Millipore) and the concentration of conidia was determined using a hemacytometer and adjusted to 10^4 conidia mL^-1 for F. oxysporum and to 10^3 conidia mL^-1 for P. expansum.
as §2, §3

[8] = test system: Penicillium expansum EPS26; assay: as above; details: Pe, 22°C, seven days, OD 600 nm, lowest concentration with no growth, given as interval of tested concentrations, three replicates, experiment repeated twice
Protocol: as §4, §2, §3

SMILES | MIC [1] | MIC [2] | MIC [3] | MIC [4] | MIC [5] | MIC [6] | MIC [7] | MIC [8]
CCCC(=O)NCCCC[C@H](NC(=O)[C@H](CC(C)C)NC(=O)[C@@H](NC(=O)[C@H](CCCCN)NC(=O)[C@H](CCCCN)NC(=O)[C@H](Cc1ccccc1)NC(=O)[C@H](CC(C)C)NC(=O)[C@H](CCCCN)NC(=O)[C@H](CCCCN)NC(C)=O)[C@@H](C)CC)C(=O)N[C@@H](Cc1ccc(O)cc1)C(=O)N[C@@H](CC(C)C)C(N)=O [BP388, Ac-KKLFKKILK(COC3H7)YL-NH2] | 3.1 to 6.2 µM | 1.6 to 3.1 µM | 6.2 to 12.5 µM | 1.6 to 3.1 µM | 6.2 to 12.5 µM | 3.1 to 6.2 µM | 0.8 to 1.6 µM | 6.2 to 12.5 µM
CCCCCCCCCCCC(=O)N[C@@H](CCCCN)C(=O)N[C@@H](CCCCN)C(=O)N[C@@H](CC(C)C)C(=O)N[C@@H](Cc1ccccc1)C(=O)N[C@@H](CCCCN)C(=O)N[C@@H](CCCCN)C(=O)N[C@H](C(=O)N[C@@H](CC(C)C)C(=O)N[C@@H](CCCCN)C(=O)N[C@@H](Cc1ccc(O)cc1)C(=O)N[C@@H](CC(C)C)C(N)=O)[C@@H](C)CC [BP391, C11H23CO-KKLFKKILKYL-NH2] | >25 µM | 3.1 to 6.2 µM | >25 µM | 6.2 to 12.5 µM | >25 µM | 6.2 to 12.5 µM | 12.5 to 25 µM | >25 µM
CCCCCCCCCCCC(=O)NCCCC[C@H](NC(C)=O)C(=O)N[C@@H](CCCCN)C(=O)N[C@@H](CC(C)C)C(=O)N[C@@H](Cc1ccccc1)C(=O)N[C@@H](CCCCN)C(=O)N[C@@H](CCCCN)C(=O)N[C@H](C(=O)N[C@@H](CC(C)C)C(=O)N[C@@H](CCCCN)C(=O)N[C@@H](Cc1ccc(O)cc1)C(=O)N[C@@H](CC(C)C)C(N)=O)[C@@H](C)CC [BP392, Ac-K(COC11H23)KLFKKILKYL-NH2] | >25 µM | 0.8 to 1.6 µM | >25 µM | 3.1 to 6.2 µM | >25 µM | 3.1 to 6.2 µM | 6.2 to 12.5 µM | >25 µM
CCCCCCCCCCCC(=O)NCCCC[C@H](NC(=O)[C@H](CCCCN)NC(C)=O)C(=O)N[C@@H](CC(C)C)C(=O)N[C@@H](Cc1ccccc1)C(=O)N[C@@H](CCCCN)C(=O)N[C@@H](CCCCN)C(=O)N[C@H](C(=O)N[C@@H](CC(C)C)C(=O)N[C@@H](CCCCN)C(=O)N[C@@H](Cc1ccc(O)cc1)C(=O)N[C@@H](CC(C)C)C(N)=O)[C@@H](C)CC [BP393, Ac-KK(COC11H23)LFKKILKYL-NH2] | 12.5 to 25 µM | 3.1 to 6.2 µM | 12.5 to 25 µM | 3.1 to 6.2 µM | 6.2 to 12.5 µM | 3.1 to 6.2 µM | 1.6 to 3.1 µM | >25 µM
CCCCCCCCCCCC(=O)NCCCC[C@H](NC(=O)[C@H](CCCCN)NC(=O)[C@H](CCCCN)NC(C)=O)C(=O)N[C@@H](Cc1ccccc1)C(=O)N[C@@H](CCCCN)C(=O)N[C@@H](CCCCN)C(=O)N[C@H](C(=O)N[C@@H](CC(C)C)C(=O)N[C@@H](CCCCN)C(=O)N[C@@H](Cc1ccc(O)cc1)C(=O)N[C@@H](CC(C)C)C(N)=O)[C@@H](C)CC [BP394, Ac-KKK(COC11H23)FKKILKYL-NH2] | 12.5 to 25 µM | 0.8 to 1.6 µM | 6.2 to 12.5 µM | 1.6 to 3.1 µM | 6.2 to 12.5 µM | 1.6 to 3.1 µM | 6.2 to 12.5 µM | 12.5 to 25 µM
CCCCCCCCCCCC(=O)NCCCC[C@H](NC(=O)[C@H](CC(C)C)NC(=O)[C@H](CCCCN)NC(=O)[C@H](CCCCN)NC(C)=O)C(=O)N[C@@H](CCCCN)C(=O)N[C@@H](CCCCN)C(=O)N[C@H](C(=O)N[C@@H](CC(C)C)C(=O)N[C@@H](CCCCN)C(=O)N[C@@H](Cc1ccc(O)cc1)C(=O)N[C@@H](CC(C)C)C(N)=O)[C@@H](C)CC [BP395, Ac-KKLK(COC11H23)KKILKYL-NH2] | 12.5 to 25 µM | 1.6 to 3.1 µM | 3.1 to 6.2 µM | 1.6 to 3.1 µM | 3.1 to 6.2 µM | 1.6 to 3.1 µM | 6.2 to 12.5 µM | 12.5 to 25 µM
CCCCCCCCCCCC(=O)NCCCC[C@H](NC(=O)[C@H](Cc1ccccc1)NC(=O)[C@H](CC(C)C)NC(=O)[C@H](CCCCN)NC(=O)[C@H](CCCCN)NC(C)=O)C(=O)N[C@@H](CCCCN)C(=O)N[C@H](C(=O)N[C@@H](CC(C)C)C(=O)N[C@@H](CCCCN)C(=O)N[C@@H](Cc1ccc(O)cc1)C(=O)N[C@@H](CC(C)C)C(N)=O)[C@@H](C)CC [BP396, Ac-KKLFK(COC11H23)KILKYL-NH2] | >25 µM | 1.6 to 3.1 µM | >25 µM | 3.1 to 6.2 µM | >25 µM | 1.6 to 3.1 µM | 6.2 to 12.5 µM | 12.5 to 25 µM
CCCCCCCCCCCC(=O)NCCCC[C@H](NC(=O)[C@H](CCCCN)NC(=O)[C@H](Cc1ccccc1)NC(=O)[C@H](CC(C)C)NC(=O)[C@H](CCCCN)NC(=O)[C@H](CCCCN)NC(C)=O)C(=O)N[C@H](C(=O)N[C@@H](CC(C)C)C(=O)N[C@@H](CCCCN)C(=O)N[C@@H](Cc1ccc(O)cc1)C(=O)N[C@@H](CC(C)C)C(N)=O)[C@@H](C)CC [BP397, Ac-KKLFKK(COC11H23)ILKYL-NH2] | >25 µM | 1.6 to 3.1 µM | >25 µM | 6.2 to 12.5 µM | >25 µM | 3.1 to 6.2 µM | 6.2 to 12.5 µM | 12.5 to 25 µM
CCCCCCCCCCCC(=O)NCCCC[C@H](NC(=O)[C@H](CCCCN)NC(=O)[C@H](CCCCN)NC(=O)[C@H](Cc1ccccc1)NC(=O)[C@H](CC(C)C)NC(=O)[C@H](CCCCN)NC(=O)[C@H](CCCCN)NC(C)=O)C(=O)N[C@@H](CC(C)C)C(=O)N[C@@H](CCCCN)C(=O)N[C@@H](Cc1ccc(O)cc1)C(=O)N[C@@H](CC(C)C)C(N)=O [BP398, Ac-KKLFKKK(COC11H23)LKYL-NH2] | >25 µM | 3.1 to 6.2 µM | 3.1 to 6.2 µM | 0.8 to 1.6 µM | 3.1 to 6.2 µM | 1.6 to 3.1 µM | 6.2 to 12.5 µM | >25 µM
CCCCCCCCCCCC(=O)NCCCC[C@H](NC(=O)[C@@H](NC(=O)[C@H](CCCCN)NC(=O)[C@H](CCCCN)NC(=O)[C@H](Cc1ccccc1)NC(=O)[C@H](CC(C)C)NC(=O)[C@H](CCCCN)NC(=O)[C@H](CCCCN)NC(C)=O)[C@@H](C)CC)C(=O)N[C@@H](CCCCN)C(=O)N[C@@H](Cc1ccc(O)cc1)C(=O)N[C@@H](CC(C)C)C(N)=O [BP399, Ac-KKLFKKIK(COC11H23)KYL-NH2] | >25 µM | 3.1 to 6.2 µM | 3.1 to 6.2 µM | 0.8 to 1.6 µM | 3.1 to 6.2 µM | 1.6 to 3.1 µM | 6.2 to 12.5 µM | 12.5 to 25 µM
